{
  "source": "patent US20030198696A1",
  "about": "“Pesticide composition of plant oils and fish oils” (priority 2000, published 2003)",
  "tested_on": "citrus greasy spot",
  "assay": "Test for citrus greasy spot control",
  "type": "in vivo",
  "conditions": "treatment amounts as printed in 250 gallons of water per acre, untreated control 0.510",
  "description": "Test for citrus greasy spot control. Treatments consisted of the following amounts of compounds in 250 gallons of water per acre: […]",
  "data": [
    {"substance": "Copper", "values": [
      {"measurement": "Disease Incidence", "result": 0.050}
    ]}
  ]
}
